Test results as given in article PMC13544220, “Glycemic and bodyweight effects of GIPR coding variation reflect differences in surface expression and intrinsic functional impairment” (Science Advances, 2026).

Tested on: wild-type and variant SNAP-GIPR
Experiment: Mini-Gs recruitment (nanoBiT) in AD293 cells
Assay type: cell-based, human
Conditions: 100 nM GIP, mean, n=7
Method: AD293 cells were reverse transfected with the GIPR variant or wild-type plasmids plus mini-Gs-LgBiT in a 1:1 ratio using Lipofectamine 2000 in 96-well white-bottom microplates precoated with 0.01% poly-D-lysine. All variants were tested in parallel on each occasion to control for transfection efficiency differences between experiments. After 24 hours, media were removed, cells washed once, and HBSS (Hanks’ balanced salt solution) containing furimazine (Promega, UK) at a 1:100 dilution was added. […] Responses were quantified by as fractional change from baseline with subtraction of the response to vehicle to account for substrate depletion, from which the AUC (area under the curve) was calculated and scaled to the average response obtained from each experiment.

In the case of `CC[C@H](C)[C@H](NC(=O)[C@H](CO)NC(=O)[C@H](Cc1ccc(O)cc1)NC(=O)[C@H](CC(=O)O)NC(=O)[C@H](CO)NC(=O)[C@@H](NC(=O)[C@H](Cc1ccccc1)NC(=O)[C@@H](NC(=O)CNC(=O)[C@H](CCC(=O)O)NC(=O)[C@H](C)NC(=O)[C@@H](N)Cc1ccc(O)cc1)[C@@H](C)O)[C@@H](C)CC)C(=O)N[C@@H](C)C(=O)N[C@@H](CCSC)C(=O)N[C@@H](CC(=O)O)C(=O)N[C@@H](CCCCN)C(=O)N[C@H](C(=O)N[C@@H](Cc1c[nH]cn1)C(=O)N[C@@H](CCC(N)=O)C(=O)N[C@@H](CCC(N)=O)C(=O)N[C@@H](CC(=O)O)C(=O)N[C@@H](Cc1ccccc1)C(=O)N[C@H](C(=O)N[C@@H](CC(N)=O)C(=O)N[C@@H](Cc1c[nH]c2ccccc12)C(=O)N[C@@H](CC(C)C)C(=O)N[C@@H](CC(C)C)C(=O)N[C@@H](C)C(=O)N[C@@H](CCC(N)=O)C(=O)N[C@@H](CCCCN)C(=O)NCC(=O)N[C@@H](CCCCN)C(=O)N[C@@H](CCCCN)C(=O)N[C@@H](CC(N)=O)C(=O)N[C@@H](CC(=O)O)C(=O)N[C@@H](Cc1c[nH]c2ccccc12)C(=O)N[C@@H](CCCCN)C(=O)N[C@@H](Cc1c[nH]cn1)C(=O)N[C@@H](CC(N)=O)C(=O)N[C@H](C(=O)N[C@H](C(=O)N[C@@H](CCC(N)=O)C(=O)O)[C@@H](C)O)[C@@H](C)CC)C(C)C)[C@@H](C)CC` [GIP, glucose-dependent insulinotropic polypeptide, reference compound], the mini-Gs recruitment (A207V) is reported as 1.64 vs. experimental average, the mini-Gs recruitment (A268V) is reported as 1.037 vs. experimental average and the mini-Gs recruitment (D66G) is reported as 0.1098 vs. experimental average. It also gave a mini-Gs recruitment (E252D) of 1.347 vs. experimental average, a mini-Gs recruitment (E288G) of 0.1501 vs. experimental average and a mini-Gs recruitment (E354Q) of 1.309 vs. experimental average. It also gave a mini-Gs recruitment (E463Q) of 1.656 vs. experimental average, a mini-Gs recruitment (G438S) of 1.599 vs. experimental average and a mini-Gs recruitment (I378M) of 1.145 vs. experimental average. The mini-Gs recruitment (I403V) was 1.332 vs. experimental average, the mini-Gs recruitment (L100F) was 1.391 vs. experimental average and the mini-Gs recruitment (L262H) was 1.034 vs. experimental average. For the same compound, the mini-Gs recruitment (L262V) was 1.282 vs. experimental average, the mini-Gs recruitment (L304R) was 0.04884 vs. experimental average and the mini-Gs recruitment (R101H) was 0.1049 vs. experimental average. The mini-Gs recruitment (R131S) was 1.232 vs. experimental average, the mini-Gs recruitment (R136W) was 0.7709 vs. experimental average and the mini-Gs recruitment (R183Q) was 0.3712 vs. experimental average. It also gave a mini-Gs recruitment (R190Q) of -0.001793 vs. experimental average, a mini-Gs recruitment (R196G) of 1.201 vs. experimental average and a mini-Gs recruitment (R217L) of 1.091 vs. experimental average. For the same compound, the mini-Gs recruitment (R300W) was 1.262 vs. experimental average, the mini-Gs recruitment (R336P) was 1.585 vs. experimental average and the mini-Gs recruitment (R341P) was 0.3717 vs. experimental average. For the same compound, the mini-Gs recruitment (R404H) was 1.074 vs. experimental average, the mini-Gs recruitment (S64A) was 0.6095 vs. experimental average and the mini-Gs recruitment (S415G) was 1.199 vs. experimental average. The mini-Gs recruitment (S415I) was 1.365 vs. experimental average, the mini-Gs recruitment (S447T) was 1.5239 vs. experimental average and the mini-Gs recruitment (T116R) was 0.9756 vs. experimental average. The mini-Gs recruitment (WT) was 1.184 vs. experimental average.
